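The compound was tested at five concentrations on cells cultured in 96-well plates, with a 48-hour exposure period. GI50 marks 50% less growth.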 The source made the active and inactive calls. No stated cut-off is given here; in the data, active = GI50 up to about 1.1 µM and inactive = higher.
Key:
Assay in all cases: NCI-60 cell line screen, 48 h
SK-MEL-5 = tested on: SK-MEL-5
K562 = tested on: K562
SF-539 = tested on: SF-539
OVCAR-3 = tested on: OVCAR-3
HL-60 = tested on: HL-60
HCT-15 = tested on: HCT-15
OVCAR-8 = tested on: OVCAR-8
OVCAR-5 = tested on: OVCAR-5
UO-31 = tested on: UO-31
IGROV-1 = tested on: IGROV-1
HCT-116 = tested on: HCT-116
Malme-3M = tested on: Malme-3M
OVCAR-4 = tested on: OVCAR-4
A498 = tested on: A498
SK-MEL-2 = tested on: SK-MEL-2
SW-620 = tested on: SW-620
KM12 = tested on: KM12
NCI-H522 = tested on: NCI-H522
SR = tested on: SR

SMILES | GI50 (SK-MEL-5) | GI50 (K562) | GI50 (SF-539) | GI50 (OVCAR-3) | GI50 (HL-60) | GI50 (HCT-15) [µM] | GI50 (OVCAR-8) | GI50 (OVCAR-5) | GI50 (UO-31) | GI50 (IGROV-1) | GI50 (HCT-116) | GI50 (Malme-3M) | GI50 (OVCAR-4) | GI50 (A498) | GI50 (SK-MEL-2) | GI50 (SW-620) | GI50 (KM12) | GI50 (NCI-H522) | GI50 (SR)
N#Cc1c(SCc2ccccc2)nc(-c2ccccc2)[nH]c1=S | 19.3 µM (inactive) | 31.6 µM (inactive) | 25.2 µM (inactive) | 18.5 µM (inactive) | 30.6 µM (inactive) | 19.8 | 27.6 µM (inactive) | 25.8 µM (inactive) | 17.8 µM (inactive) | 29.9 µM (inactive) | 23.7 µM (inactive) | 37.2 µM (inactive) | 30.9 µM (inactive) | 27.3 µM (inactive) | 16.7 µM (inactive) | 25.6 µM (inactive) | 17.4 µM (inactive) | – | –
NC1CC(=O)c2cc(Cl)sc21 (stereo not drawn) | > 100 µM (inactive) | 0.929 µM (active) | > 100 µM (inactive) | > 100 µM (inactive) | > 100 µM (inactive) | > 100 | > 100 µM (inactive) | > 100 µM (inactive) | > 100 µM (inactive) | > 100 µM (inactive) | > 100 µM (inactive) | > 100 µM (inactive) | > 100 µM (inactive) | – | > 100 µM (inactive) | > 100 µM (inactive) | > 100 µM (inactive) | > 100 µM (inactive) | –
O=C(NNc1cn[nH]c(=O)c1Cl)/C(=C/c1ccc2c(c1)OCO2)NC(=O)c1ccccc1 | 40.8 µM (inactive) | – | 40.7 µM (inactive) | 71.3 µM (inactive) | – | 31.7 | 36.7 µM (inactive) | > 100 µM (inactive) | 48.2 µM (inactive) | 23.6 µM (inactive) | 34.8 µM (inactive) | – | 32.8 µM (inactive) | – | 51.9 µM (inactive) | 41.2 µM (inactive) | 34.7 µM (inactive) | – | –
CNC(=O)CCNC(=O)CCC(=O)OC | > 100 µM (inactive) | > 100 µM (inactive) | > 100 µM (inactive) | > 100 µM (inactive) | – | – | > 100 µM (inactive) | > 100 µM (inactive) | > 100 µM (inactive) | – | > 100 µM (inactive) | – | > 100 µM (inactive) | > 100 µM (inactive) | > 100 µM (inactive) | > 100 µM (inactive) | > 100 µM (inactive) | – | –
OC1=C2c3ccccc3NC2Oc2cc(F)ccc21 (stereo not drawn) | 15 µM (inactive) | 15.6 µM (inactive) | – | 11.9 µM (inactive) | – | 15.8 | 27 µM (inactive) | 17.9 µM (inactive) | 13.9 µM (inactive) | 21.7 µM (inactive) | 14 µM (inactive) | 20.4 µM (inactive) | 16.6 µM (inactive) | 15.3 µM (inactive) | 19.7 µM (inactive) | 19.6 µM (inactive) | 15.4 µM (inactive) | 17.7 µM (inactive) | –
C[C@@H]1CCC[C@]2(C)O[C@H]2CC[C@@](C)(O)[C@@H]2CC3=C(CO)C(=O)O[C@H]3[C@H]1O2 | > 50 µM (inactive) | > 50 µM (inactive) | > 50 µM (inactive) | > 50 µM (inactive) | > 5 µM (inactive) | > 50 | > 50 µM (inactive) | > 50 µM (inactive) | > 50 µM (inactive) | 25.5 µM (inactive) | > 50 µM (inactive) | – | > 50 µM (inactive) | > 50 µM (inactive) | > 50 µM (inactive) | > 50 µM (inactive) | > 50 µM (inactive) | 28.4 µM (inactive) | –
CN[C@@H](C)[C@H](OP(=O)(O)OC1[C@@H](O)[C@H](O)C(O)[C@H](O)[C@@H]1O)c1ccccc1 (stereo partly drawn) | > 100 µM (inactive) | – | 16.3 µM (inactive) | > 100 µM (inactive) | > 100 µM (inactive) | > 100 | > 100 µM (inactive) | > 100 µM (inactive) | > 100 µM (inactive) | > 100 µM (inactive) | > 100 µM (inactive) | > 100 µM (inactive) | > 100 µM (inactive) | > 100 µM (inactive) | > 100 µM (inactive) | > 100 µM (inactive) | > 100 µM (inactive) | > 100 µM (inactive) | –
O=C(O)Cn1nnc2c(=O)[nH][nH]c(=O)c21 | > 100 µM (inactive) | > 10 µM (inactive) | – | > 100 µM (inactive) | > 100 µM (inactive) | > 100 | > 100 µM (inactive) | > 100 µM (inactive) | > 100 µM (inactive) | – | > 100 µM (inactive) | > 100 µM (inactive) | > 10 µM (inactive) | – | > 100 µM (inactive) | – | > 100 µM (inactive) | – | > 100 µM (inactive)
CC1=C(C2=C(C)C(=O)C(=O)c3cc(C)ccc32)c2ccc(C)cc2C(=O)C1=O | 0.206 µM (active) | 0.185 µM (active) | 0.182 µM (active) | 0.153 µM (active) | 0.0199 µM (active) | 0.278 | 0.245 µM (active) | 0.199 µM (active) | 0.178 µM (active) | 0.282 µM (active) | 0.333 µM (active) | 0.215 µM (active) | 0.221 µM (active) | 1.59 µM (inactive) | 0.313 µM (active) | 0.255 µM (active) | 0.205 µM (active) | 0.21 µM (active) | –
CCC[C@H](C)C[C@H](C)C[C@H](C)/C=C(\C)[C@@H](O)[C@@H](C)C(=O)CC | 18.9 µM (inactive) | 18.3 µM (inactive) | 21 µM (inactive) | 19.7 µM (inactive) | 17.9 µM (inactive) | 21 | 20.3 µM (inactive) | 19.9 µM (inactive) | 23 µM (inactive) | 19.3 µM (inactive) | 17.5 µM (inactive) | 18.5 µM (inactive) | 19.2 µM (inactive) | 25.5 µM (inactive) | 24.9 µM (inactive) | 20.3 µM (inactive) | 20.2 µM (inactive) | 17.6 µM (inactive) | –
O=C(/C=C(\C(=O)c1cccs1)c1cccs1)c1ccc(C(=O)/C=C(\C(=O)c2cccs2)c2cccs2)cc1 | > 100 µM (inactive) | > 100 µM (inactive) | > 100 µM (inactive) | – | > 100 µM (inactive) | > 100 | > 100 µM (inactive) | – | > 100 µM (inactive) | > 100 µM (inactive) | > 100 µM (inactive) | – | > 100 µM (inactive) | – | > 100 µM (inactive) | > 100 µM (inactive) | > 100 µM (inactive) | – | > 100 µM (inactive)
CN(C)C1(N(C)C)Oc2c(c(=O)n(C)c(=O)n2C)C(c2ccc(F)cc2)C1(F)F (stereo not drawn) | > 100 µM (inactive) | – | – | > 100 µM (inactive) | – | > 100 | – | > 100 µM (inactive) | > 100 µM (inactive) | – | > 100 µM (inactive) | – | > 100 µM (inactive) | > 100 µM (inactive) | > 100 µM (inactive) | > 100 µM (inactive) | > 100 µM (inactive) | – | –
CC1=C(C)C(=O)C(C2=C(C3=CC(=O)C(C)=C(C)C3=O)C(=O)C(C)=C(C)C2=O)=CC1=O | 2.15 µM (inactive) | – | 2.17 µM (inactive) | – | > 100 µM (inactive) | 0.294 | 4.41 µM (inactive) | 7.85 µM (inactive) | 4.59 µM (inactive) | 10.9 µM (inactive) | 5.45 µM (inactive) | 3.1 µM (inactive) | 1.79 µM (inactive) | 14.3 µM (inactive) | 14.5 µM (inactive) | 3.32 µM (inactive) | 8.51 µM (inactive) | 1.95 µM (inactive) | –
CN(C)CCNC(=O)c1cccc2c1nc(-c1ccc(F)cc1)c1ccccc12 | 2.34 µM (inactive) | 2.44 µM (inactive) | 3.63 µM (inactive) | 5.58 µM (inactive) | 1.22 µM (inactive) | 2.67 | 4.33 µM (inactive) | 3.63 µM (inactive) | 1.64 µM (inactive) | 2.84 µM (inactive) | 2.46 µM (inactive) | – | 5.94 µM (inactive) | 2.2 µM (inactive) | 10.3 µM (inactive) | 2.27 µM (inactive) | 5.93 µM (inactive) | – | –
COc1cccc(NC(=O)c2c(SC)c(C#N)c(=O)n(N)c2N)c1 | 64.9 µM (inactive) | 45.9 µM (inactive) | 66.4 µM (inactive) | – | – | 66.2 | 47.9 µM (inactive) | 31.7 µM (inactive) | – | > 100 µM (inactive) | 35.2 µM (inactive) | > 100 µM (inactive) | 40.9 µM (inactive) | 79.3 µM (inactive) | > 100 µM (inactive) | 51.2 µM (inactive) | > 100 µM (inactive) | 42.3 µM (inactive) | –
CO[C@@H]1C[C@H]2N3CC[C@@]2(c2cc4c(cc2C3)OCO4)[C@H]2O[C@@H]12 | 0.157 µM (active) | > 100 µM (inactive) | 0.603 µM (active) | > 100 µM (inactive) | > 100 µM (inactive) | > 100 | > 100 µM (inactive) | > 100 µM (inactive) | > 100 µM (inactive) | > 100 µM (inactive) | > 100 µM (inactive) | > 100 µM (inactive) | > 100 µM (inactive) | > 100 µM (inactive) | > 100 µM (inactive) | > 100 µM (inactive) | > 100 µM (inactive) | > 100 µM (inactive) | –
NC(Cc1ccccc1)C(=O)O (stereo not drawn) [DL-PHENYLALANINE] | > 100 µM (inactive) | > 100 µM (inactive) | > 100 µM (inactive) | > 100 µM (inactive) | > 100 µM (inactive) | > 100 | > 100 µM (inactive) | > 100 µM (inactive) | > 100 µM (inactive) | > 100 µM (inactive) | > 100 µM (inactive) | > 100 µM (inactive) | > 100 µM (inactive) | > 100 µM (inactive) | > 100 µM (inactive) | > 100 µM (inactive) | > 100 µM (inactive) | > 100 µM (inactive) | –

From ChEMBL document CHEMBL1201862, “PubChem BioAssay data set” (2004)
